Assays:
[1] = 1-octanol/water partition coefficient (Poct) of tripeptides
Method: The 1-octanol/water partition coefficients (Poct) of the two tripeptides were evaluated.
To 20 mg of peptide 4 or 5 were added 2 mL of water and 2 mL of 1-octanol. The resulting mixture was shaken with a mixer for 10 min. After the aqueous and the organic phases were fully separated, 50 μL of solution was taken out from each phase for HPLC analysis. To a mixture of 200 μL aqueous solution and 200 μL 1-octanol solution were added 1.8 mL of water and 1.8 mL of 1-octanol. The resulting mixture was shaken with a mixer for 10 min. After the phases were fully separated, 50 μL of solution was taken out from each phase for reversed-phases HPLC analysis.

[2] = cited from earlier work

| Compound | melting point | also measured |
| --- | --- | --- |
| NC(=O)CNC(=O)C(CNC(=O)CNC=O)(COC(C(F)(F)F)(C(F)(F)F)C(F)(F)F)COC(C(F)(F)F)(C(F)(F)F)C(F)(F)F [tripeptide 4, Formyl-Gly-βFa-Gly-Amide] | – | logP at 10 min [1]: > 1 |
| octreotide | – | in vivo half-life (t1/2) [2]: 2 h |

Now from value to compound, other results behind:

| melting point | Compound | also measured |
| --- | --- | --- |
| 182 to 184 °C | NCC(COC(C(F)(F)F)(C(F)(F)F)C(F)(F)F)(COC(C(F)(F)F)(C(F)(F)F)C(F)(F)F)C(=O)O | – |
| 104 to 105 °C | O=C(NCC(COC(C(F)(F)F)(C(F)(F)F)C(F)(F)F)(COC(C(F)(F)F)(C(F)(F)F)C(F)(F)F)C(=O)O)OCC1c2ccccc2-c2ccccc21 | – |
| 128 to 130 °C | CC(C)(C)OC(=O)NCC(COC(C(F)(F)F)(C(F)(F)F)C(F)(F)F)(COC(C(F)(F)F)(C(F)(F)F)C(F)(F)F)C(=O)O | – |
